The source made the active and inactive calls.
What was measured:
[1] = target: DNA dC->dU-editing enzyme APOBEC-3A (Homo sapiens, UniProt P31941); assay: SAR analysis of small molecule inhibitors of APOBEC3A DNA Deaminase via a fluorescence-based single-stranded DNA deaminase assay - Set 2.; type: functional; conditions: read-out: IC50_Mean
[2] = target: DNA dC->dU-editing enzyme APOBEC-3G (Homo sapiens, UniProt Q9HC16); assay: SAR analysis of small molecule inhibitors of APOBEC3G DNA Deaminase via a fluorescence-based single-stranded DNA deaminase assay - Set 2.; type: functional; conditions: read-out: IC50_Mean
[3] = target: Serine/threonine-protein kinase pim-1 (Homo sapiens, UniProt P11309); type: functional
Sequence of Serine/threonine-protein kinase pim-1 (P11309 whole entry): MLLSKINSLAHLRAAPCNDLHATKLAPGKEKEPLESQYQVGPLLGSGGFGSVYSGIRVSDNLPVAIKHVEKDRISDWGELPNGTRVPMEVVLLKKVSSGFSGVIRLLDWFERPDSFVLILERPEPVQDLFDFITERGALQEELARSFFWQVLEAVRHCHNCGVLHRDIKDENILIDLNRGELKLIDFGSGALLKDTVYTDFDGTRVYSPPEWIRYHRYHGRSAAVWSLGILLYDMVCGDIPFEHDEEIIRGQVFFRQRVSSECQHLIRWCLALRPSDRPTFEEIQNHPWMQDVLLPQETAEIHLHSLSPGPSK

[4] = target: Casein kinase II subunit alpha (Homo sapiens, UniProt P68400); type: functional
Sequence of Casein kinase II subunit alpha (P68400 whole entry): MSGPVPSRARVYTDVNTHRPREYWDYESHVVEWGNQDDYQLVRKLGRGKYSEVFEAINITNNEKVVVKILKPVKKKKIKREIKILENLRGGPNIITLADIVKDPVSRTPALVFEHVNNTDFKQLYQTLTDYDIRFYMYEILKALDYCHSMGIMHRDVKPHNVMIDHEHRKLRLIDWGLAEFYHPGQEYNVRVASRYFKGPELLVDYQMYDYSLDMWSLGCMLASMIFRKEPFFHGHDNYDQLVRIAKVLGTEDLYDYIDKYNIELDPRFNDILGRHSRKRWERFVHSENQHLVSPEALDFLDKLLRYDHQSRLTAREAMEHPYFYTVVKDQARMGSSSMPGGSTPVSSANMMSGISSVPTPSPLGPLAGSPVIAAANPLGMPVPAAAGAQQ

[5] = target: Serine/threonine-protein kinase pim-3 (Homo sapiens, UniProt Q86V86); type: functional;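 also: value obtained as one member of a broad kinase panel profiling effort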
[6] = target: Casein kinase I isoform delta (Homo sapiens, UniProt P48730); type: functional;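 also: measured as one member (CSNK1D) of a kinome panel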
[7] = target: Dual specificity protein kinase CLK4 (Homo sapiens, UniProt Q9HAZ1); type: functional
[8] = target: Mitogen-activated protein kinase kinase kinase kinase 4 (Homo sapiens, UniProt O95819); type: functional
[9] = target: Dual specificity tyrosine-phosphorylation-regulated kinase 1A (Homo sapiens, UniProt Q13627); type: functional;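 also: measured against DYRK1A as one member of a broad kinome profiling panel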
[10] = SAR analysis of small molecule activators of Apaf-1 using a LZ-Caspase-9/Caspase-3 Fluorescent Selectivity assay - Set 2.; type: functional; conditions: read-out: EC50_Mean
[11] = target: T1, Apoptotic protease-activating factor 1 (Homo sapiens, UniProt O14727); assay: SAR analysis of small molecule Activators of Apaf-1 in a Fluorescent assay - set 2.; type: functional; conditions: read-out: EC50_Mean
T1 sequence (O14727 whole entry): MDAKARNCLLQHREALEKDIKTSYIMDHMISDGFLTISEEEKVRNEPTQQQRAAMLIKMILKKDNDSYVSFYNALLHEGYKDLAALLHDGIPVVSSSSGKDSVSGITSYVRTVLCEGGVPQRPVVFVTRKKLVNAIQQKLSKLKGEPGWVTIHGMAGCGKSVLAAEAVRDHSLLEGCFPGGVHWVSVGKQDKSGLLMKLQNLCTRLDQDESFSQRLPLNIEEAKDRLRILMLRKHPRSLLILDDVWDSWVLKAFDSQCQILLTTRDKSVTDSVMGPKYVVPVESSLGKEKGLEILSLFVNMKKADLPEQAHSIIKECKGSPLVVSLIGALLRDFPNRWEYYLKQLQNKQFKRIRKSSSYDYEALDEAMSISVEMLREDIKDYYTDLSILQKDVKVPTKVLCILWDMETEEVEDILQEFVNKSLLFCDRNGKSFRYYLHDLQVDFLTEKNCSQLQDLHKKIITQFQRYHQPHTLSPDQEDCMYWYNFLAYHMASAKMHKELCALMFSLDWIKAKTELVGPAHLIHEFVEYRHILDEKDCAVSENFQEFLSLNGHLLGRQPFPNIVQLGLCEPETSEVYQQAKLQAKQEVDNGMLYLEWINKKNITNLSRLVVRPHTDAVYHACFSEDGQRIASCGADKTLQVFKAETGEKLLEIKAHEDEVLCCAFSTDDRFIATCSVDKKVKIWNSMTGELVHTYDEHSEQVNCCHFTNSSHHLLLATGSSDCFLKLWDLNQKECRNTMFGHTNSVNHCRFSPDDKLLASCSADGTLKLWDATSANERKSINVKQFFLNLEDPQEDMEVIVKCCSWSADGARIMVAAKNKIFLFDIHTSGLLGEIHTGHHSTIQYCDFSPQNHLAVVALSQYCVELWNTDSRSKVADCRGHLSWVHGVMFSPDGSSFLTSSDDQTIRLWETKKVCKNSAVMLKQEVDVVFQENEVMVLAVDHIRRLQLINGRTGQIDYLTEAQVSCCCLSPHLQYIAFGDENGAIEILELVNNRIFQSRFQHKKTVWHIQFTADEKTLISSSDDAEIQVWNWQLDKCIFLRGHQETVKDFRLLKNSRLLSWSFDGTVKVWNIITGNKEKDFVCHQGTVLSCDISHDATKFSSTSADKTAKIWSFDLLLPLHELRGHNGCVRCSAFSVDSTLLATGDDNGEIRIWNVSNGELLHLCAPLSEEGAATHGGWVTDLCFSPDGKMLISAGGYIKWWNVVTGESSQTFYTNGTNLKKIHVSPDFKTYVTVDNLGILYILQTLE

[12] = target: Multidrug resistance protein CDR2 (Candida albicans (strain SC5314 / ATCC MYA-2876) (Yeast), UniProt P78595); assay: inhibition of Nile Red efflux via Candida CDR2 – S. cerevisiae AD1-8u, singleplex, Cherry Pick1 hits, dose response (AID 588604); type: functional
[13] = NIH-3T3 fibroblast cytotoxicity, dose response, cytotoxicity control, cell-based, fluorescence, Alamar Blue, secondary assay (AID 2327); type: functional;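 also: NIH-3T3 mouse fibroblasts cultured with fluconazole at 8 µg/mL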
[14] = target: T2, Delta-type opioid receptor (Homo sapiens, UniProt P41143); assay: HTS Image-Based Screen for Antagonists of the DOR Receptor. [Related pubchem assays (depositor defined):AID1777, AID1785, AID1786, AID2133]; type: functional
T2 sequence (P41143 whole entry): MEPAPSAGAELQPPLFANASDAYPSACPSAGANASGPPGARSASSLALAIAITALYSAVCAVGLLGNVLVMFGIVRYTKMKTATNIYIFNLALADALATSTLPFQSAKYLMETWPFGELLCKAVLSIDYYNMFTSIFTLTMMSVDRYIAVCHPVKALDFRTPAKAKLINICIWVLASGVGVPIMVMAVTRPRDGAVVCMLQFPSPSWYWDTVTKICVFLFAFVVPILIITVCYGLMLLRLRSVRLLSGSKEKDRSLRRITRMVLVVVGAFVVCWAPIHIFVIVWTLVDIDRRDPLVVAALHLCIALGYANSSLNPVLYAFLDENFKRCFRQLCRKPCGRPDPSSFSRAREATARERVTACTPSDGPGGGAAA

[15] = target: Mu-type opioid receptor (Homo sapiens, UniProt P35372); assay: HTS Image-Based Screen for Agonists of the MOR Receptor. [Related pubchem assays (depositor defined):AID1777, AID1785, AID1786, AID2133]; type: functional;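 also: imaging of beta-arrestin GFP recruitment into spots after receptor activation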
Sequence of Mu-type opioid receptor (P35372 whole entry): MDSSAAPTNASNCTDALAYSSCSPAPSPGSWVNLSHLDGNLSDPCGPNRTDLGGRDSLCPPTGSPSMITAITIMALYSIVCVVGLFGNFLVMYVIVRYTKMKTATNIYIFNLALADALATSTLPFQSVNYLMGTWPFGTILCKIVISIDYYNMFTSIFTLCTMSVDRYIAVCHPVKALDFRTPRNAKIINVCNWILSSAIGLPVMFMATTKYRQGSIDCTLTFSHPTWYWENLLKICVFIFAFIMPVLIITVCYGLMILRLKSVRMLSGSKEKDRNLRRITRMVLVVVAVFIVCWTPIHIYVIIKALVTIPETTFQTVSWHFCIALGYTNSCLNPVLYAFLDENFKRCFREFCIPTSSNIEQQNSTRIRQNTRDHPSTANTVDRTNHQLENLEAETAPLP

[16] = Luminescence Cell-Based Dose Confirmation HTS to Identify Activators of 5'UTR Stem-Loop Driven Alpha-Synuclein mRNA Translation in H4 Neuroglioblastoma Cells. [Related pubchem assays: 1829 (Project Summary), 1814 (Primary HTS)]; type: functional
[17] = Luminescence Cell-Based Dose Response HTS to Identify Activators of Luciferase Translation or Activity in H4 […] Cells. [Related pubchem assays: 1829 (Project Summary), 1814 (Primary HTS)]; type: functional
[18] = target: T2, Delta-type opioid receptor; assay: HTS Image-Based Screen for Agonists of the DOR Receptor. [Related pubchem assays (depositor defined):AID1777, AID1786, AID2133]; type: functional
[19] = system: BJ; assay: BJ-TERT fibroblast viability loss – cell-based, RAS-independent, luminescence, dose response (AID 1933); type: functional; conditions: Homo sapiens
[20] = system: H4; assay: Luminescence Cell-Based Dose Response HTS to Identify Activators of 5'UTR Stem-Loop Driven Prion Protein mRNA Translation in H4 Neuroglioblastoma Cells. [Related pubchem assays: 1829 (Project Summary), 1814 (Primary HTS)]; type: functional; conditions: Homo sapiens
[21] = target: T3, Beta-galactosidase (Escherichia coli, UniProt Q8VNN2); assay: PubChem AID 485352; type: functional
T3 sequence (Q8VNN2 whole entry): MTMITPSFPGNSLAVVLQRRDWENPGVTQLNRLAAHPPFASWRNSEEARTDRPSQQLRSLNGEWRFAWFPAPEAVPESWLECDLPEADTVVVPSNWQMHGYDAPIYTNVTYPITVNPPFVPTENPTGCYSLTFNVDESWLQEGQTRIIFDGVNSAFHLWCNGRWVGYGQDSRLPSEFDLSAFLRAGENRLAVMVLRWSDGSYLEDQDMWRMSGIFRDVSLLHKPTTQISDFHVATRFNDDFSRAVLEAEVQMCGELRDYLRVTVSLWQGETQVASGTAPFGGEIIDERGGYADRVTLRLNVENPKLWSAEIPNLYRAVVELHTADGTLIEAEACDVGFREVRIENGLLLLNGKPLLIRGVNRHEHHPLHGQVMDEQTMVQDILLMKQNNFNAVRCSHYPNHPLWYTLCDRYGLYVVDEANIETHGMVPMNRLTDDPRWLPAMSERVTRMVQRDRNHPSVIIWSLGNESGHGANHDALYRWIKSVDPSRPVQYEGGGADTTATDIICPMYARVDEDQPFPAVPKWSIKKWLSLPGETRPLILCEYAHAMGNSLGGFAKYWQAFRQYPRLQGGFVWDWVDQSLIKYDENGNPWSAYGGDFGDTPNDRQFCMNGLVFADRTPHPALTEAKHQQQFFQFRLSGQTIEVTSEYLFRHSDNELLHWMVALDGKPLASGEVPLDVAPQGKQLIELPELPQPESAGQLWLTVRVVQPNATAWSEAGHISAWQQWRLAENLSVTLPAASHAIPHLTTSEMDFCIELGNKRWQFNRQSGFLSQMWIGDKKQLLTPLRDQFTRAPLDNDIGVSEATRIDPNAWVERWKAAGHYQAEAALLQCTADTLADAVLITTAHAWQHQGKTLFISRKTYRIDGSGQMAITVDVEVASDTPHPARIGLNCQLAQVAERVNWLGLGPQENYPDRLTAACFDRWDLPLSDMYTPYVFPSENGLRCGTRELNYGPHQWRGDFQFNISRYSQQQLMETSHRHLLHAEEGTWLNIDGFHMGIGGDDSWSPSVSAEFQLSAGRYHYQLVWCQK

[22] = system: BJ; assay: cells; type: functional, cell-based; conditions: Homo sapiens
[23] = Luminescence-based dose response cell-based high throughput screening assay for cytotoxic compounds using the IEC-6 intestinal epithelial cell line. [Related pubchem assays: 1858 (Summary AID.), 1825 (Counterscreen.), 1907 (Confirmation screen.)]; type: functional
[24] = target: Type-1 angiotensin II receptor (Homo sapiens, UniProt P30556); assay: antagonism of angiotensin II type 1 receptor – cell-based, uHTS hits, selectivity assay for APJ receptor antagonist project, dose response (AID 463214); type: functional;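 also: antagonist potency against angiotensin II stimulated AT1 response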
Sequence of Type-1 angiotensin II receptor (P30556 whole entry): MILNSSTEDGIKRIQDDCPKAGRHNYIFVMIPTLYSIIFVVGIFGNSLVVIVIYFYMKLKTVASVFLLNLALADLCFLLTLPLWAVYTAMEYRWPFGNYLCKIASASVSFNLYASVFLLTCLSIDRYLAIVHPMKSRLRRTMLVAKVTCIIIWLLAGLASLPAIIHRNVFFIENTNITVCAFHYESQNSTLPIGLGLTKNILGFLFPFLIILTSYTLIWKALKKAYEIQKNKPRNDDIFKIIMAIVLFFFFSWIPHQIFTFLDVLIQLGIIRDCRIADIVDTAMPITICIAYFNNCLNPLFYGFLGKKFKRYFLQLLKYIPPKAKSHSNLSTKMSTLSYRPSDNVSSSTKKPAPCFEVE

[25] = target: T4, Kappa-type opioid receptor (Homo sapiens, UniProt P41145); type: functional
T4 sequence (P41145 whole entry): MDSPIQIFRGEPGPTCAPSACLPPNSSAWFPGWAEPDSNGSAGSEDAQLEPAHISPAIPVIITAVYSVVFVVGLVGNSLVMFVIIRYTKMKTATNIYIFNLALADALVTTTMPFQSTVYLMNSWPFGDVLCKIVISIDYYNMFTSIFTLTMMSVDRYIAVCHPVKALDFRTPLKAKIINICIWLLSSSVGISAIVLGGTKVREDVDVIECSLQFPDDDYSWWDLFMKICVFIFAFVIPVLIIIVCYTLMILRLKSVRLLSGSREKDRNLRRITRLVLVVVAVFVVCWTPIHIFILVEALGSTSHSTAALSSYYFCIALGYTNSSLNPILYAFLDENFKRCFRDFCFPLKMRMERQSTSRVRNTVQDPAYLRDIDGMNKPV

[26] = target: T3, Beta-galactosidase; type: functional
[27] = system: BJ; assay: BJ-TERT-LT-ST fibroblast viability loss – cell-based, RAS-independent, luminescence, dose response (AID 1935); type: functional; conditions: Homo sapiens;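 also: BJ fibroblasts immortalized with TERT plus LT and ST oncogenes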
[28] = target: T4, Kappa-type opioid receptor; type: functional; remark: listed apart in the source
[29] = DRD fibroblast viability loss – cell-based, non-viral oncogenic, luminescence, dose response (AID 1934); type: functional; conditions: Homo sapiens
[30] = HEK-293T viability loss after treatment – luminescence, T-cell screen hits, cytotoxicity control for TCR NF-kB inhibitor project, dose response (AID 489026); type: functional, cell-based;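 also: cells exposed to compound about 14 hours before the viability readout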
[31] = system: Vero; assay: cells; type: functional, cell-based; conditions: Chlorocebus sabaeus
[32] = system: BJ; assay: growth inhibition of engineered Ras-driven BJ cells – cell-based, alamar blue fluorescence, cherrypicked samples, dose response (AID 2631); type: functional; conditions: Homo sapiens;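 also: confirmatory dose-response assay in RAS-dependent BJ fibroblasts engineered with TERT, LT and ST, with cytotoxicity read by fluorescence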
[33] = system: Vero; assay: cells; type: functional; conditions: Chlorocebus sabaeus
[34] = target: T5, Polyadenylate-binding protein 1 (Homo sapiens, UniProt P11940); assay: MLLE binding blockers, Cy5 peptide tracer – biochemical, fluorescence polarization, Cy5-PAM2 peptide, secondary, miRNA deadenylation inhibitor project, dose response (AID 602260); type: functional; conditions: read-out: IC50_Mean
T5 sequence (P11940 whole entry): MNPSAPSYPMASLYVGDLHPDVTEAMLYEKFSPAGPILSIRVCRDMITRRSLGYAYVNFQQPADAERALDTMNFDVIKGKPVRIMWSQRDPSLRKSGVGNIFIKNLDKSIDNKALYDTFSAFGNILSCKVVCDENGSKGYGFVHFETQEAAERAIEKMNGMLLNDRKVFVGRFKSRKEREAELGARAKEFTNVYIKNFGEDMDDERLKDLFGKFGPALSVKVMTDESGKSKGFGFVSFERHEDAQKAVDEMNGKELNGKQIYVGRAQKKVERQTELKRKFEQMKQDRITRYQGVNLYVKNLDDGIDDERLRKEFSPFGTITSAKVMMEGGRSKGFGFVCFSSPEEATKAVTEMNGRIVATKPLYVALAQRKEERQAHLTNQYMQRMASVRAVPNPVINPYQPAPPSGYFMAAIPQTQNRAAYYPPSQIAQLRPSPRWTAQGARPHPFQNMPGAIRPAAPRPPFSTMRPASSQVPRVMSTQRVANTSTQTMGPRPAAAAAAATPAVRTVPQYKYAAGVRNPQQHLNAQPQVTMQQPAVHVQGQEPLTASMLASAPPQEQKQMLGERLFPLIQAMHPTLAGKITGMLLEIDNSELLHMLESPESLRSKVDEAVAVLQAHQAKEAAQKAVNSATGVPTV

[35] = reduction of Shn3 3'UTR-driven luciferase in osteoblasts – cell-based, Clone20 osteoblasts, firefly luciferase, cherry-picked, dose response (AID 624132); type: functional;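 also: firefly luciferase luminescence from reporter carrying the Shn3 3'UTR in osteoblasts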
[36] = target: T5, Polyadenylate-binding protein 1; assay: MLLE domain peptide-binding blockers, IC50 – biochemical, fluorescence polarization, FITC-PAM2 peptide, dose response (AID 602259); type: functional; conditions: read-out: IC50_Mean
[37] = target: 26S proteasome non-ATPase regulatory subunit 14 (Homo sapiens, UniProt O00487); assay: inhibition of proteasome subunit RPN11 – biochemical, fluorescence polarization, uHTS hits, confirmation (AID 602368); type: functional
[38] = non-specific 3'UTR reporter inhibition in Clone20-Shn3RL – cell-based, Renilla luciferase, cherry-picked, counter-screen for Shn3 inhibitor project, dose response (AID 624133); type: functional
[39] = target: 72 kDa type IV collagenase (Homo sapiens, UniProt P08253); assay: Dose Response validation of uHTS RPN11 inhibitor hits using a MMP-2 Fluorescence assay.; type: functional
[40] = target: Prothrombin (Bos taurus, UniProt P00735); assay: thrombin protease inhibitors – biochemical, fluorescence polarization, uHTS hits, dose response (AID 602369); type: functional
[41] = target: Glycogen synthase kinase-3 beta (Homo sapiens, UniProt P49841); assay: inhibition of human GSK3B activity – biochemical, microfluidics, dry powder samples, set 2, dose response (AID 623989); type: functional
[42] = target: Glycogen synthase kinase-3 alpha (Homo sapiens, UniProt P49840); assay: GSK3A enzyme blockers, homolog specificity check – biochemical, microfluidics, dry powder samples, set 2, selectivity assay for GSK3beta inhibitor project, dose response (AID 623978); type: functional
[43] = target: Melanin-concentrating hormone receptor 1 (Homo sapiens, UniProt Q99705); assay: Late-stage fluorescence-based counterscreen for antagonists of the G-protein coupled receptor 7 (GPR7): cell-based dose response assay to identify antagonists of the melanin-concentrating hormone receptor 1 (MCHR1) Set 6.; type: functional
Sequence of Melanin-concentrating hormone receptor 1 (Q99705 whole entry): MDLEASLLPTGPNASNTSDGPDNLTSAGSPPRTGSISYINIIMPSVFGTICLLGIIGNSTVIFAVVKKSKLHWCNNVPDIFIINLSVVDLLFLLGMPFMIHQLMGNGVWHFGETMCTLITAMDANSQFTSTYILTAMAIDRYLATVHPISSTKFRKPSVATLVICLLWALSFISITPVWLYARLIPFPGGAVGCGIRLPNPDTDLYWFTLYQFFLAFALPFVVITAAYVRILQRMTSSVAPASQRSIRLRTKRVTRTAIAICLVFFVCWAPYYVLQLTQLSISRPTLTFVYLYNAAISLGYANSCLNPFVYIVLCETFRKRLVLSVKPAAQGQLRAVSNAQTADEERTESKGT

[44] = target: T6, Neuropeptides B/W receptor type 1 (Homo sapiens, UniProt P48145); assay: human NPBW1 receptor blockade, IC50 – cell-based, fluorescence, dose response, set 6, late-stage follow-up (AID 588583); type: functional
T6 sequence (P48145 whole entry): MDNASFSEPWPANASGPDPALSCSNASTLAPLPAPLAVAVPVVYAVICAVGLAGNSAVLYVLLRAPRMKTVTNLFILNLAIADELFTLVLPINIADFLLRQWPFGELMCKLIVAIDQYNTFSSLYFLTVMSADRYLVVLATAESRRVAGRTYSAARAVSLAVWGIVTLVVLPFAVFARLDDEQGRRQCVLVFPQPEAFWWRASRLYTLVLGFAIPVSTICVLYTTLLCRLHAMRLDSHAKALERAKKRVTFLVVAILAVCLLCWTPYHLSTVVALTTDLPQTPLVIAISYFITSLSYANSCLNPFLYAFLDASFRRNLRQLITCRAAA

Sequence of DNA dC->dU-editing enzyme APOBEC-3A (P31941 whole entry): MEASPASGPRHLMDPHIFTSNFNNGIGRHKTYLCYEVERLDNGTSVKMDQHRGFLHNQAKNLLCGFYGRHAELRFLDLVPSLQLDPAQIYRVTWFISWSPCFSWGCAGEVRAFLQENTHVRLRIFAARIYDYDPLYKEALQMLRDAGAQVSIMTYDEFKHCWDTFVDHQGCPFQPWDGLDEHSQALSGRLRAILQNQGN

Structure (SMILES): O=C(O)c1cc2ncccn2n1
- IC50 [1]: 2.6 µM (active)
- IC50 [2]: 1.73 µM (active)

Structure (SMILES): O=c1oc2ccccc2c2[nH]c(-c3ccccc3)nc12
- Ki [3]: 1 µM (active)
- Ki [4]: 2 µM (active)
- Ki [5]: 1.58 µM (active)
- Ki [6]: 6.31 µM (active)
- Ki [7]: 1.26 µM (active)
- Ki [8]: 5.01 µM (active)
- Ki [9]: 1.58 µM (active)

Structure (SMILES): CC(CN1CCOCC1)C(=O)O (centres undefined)
- EC50 [10]: > 100 µM (inactive)
- EC50 [11]: > 100 µM (inactive)

Structure (SMILES): O=C(Oc1ccc2c(=O)c(Oc3ccc4ccccc4c3)coc2c1)c1cncc(Br)c1
- EC50 [12]: 22.2 µM (active)

Structure (SMILES): O=C(Sc1cccc2cccnc12)c1ccccc1Br
- EC50 [13]: 31.8 µM (active)
- IC50 [14]: > 32 µM (inactive)
- EC50 [15]: > 32 µM (inactive)
- EC50 [16]: > 120 µM (not active)
- EC50 [17]: > 120 µM (not active)
- EC50 [18]: > 32 µM (inactive)
- EC50 [19]: 12.7 µM (active)
- EC50 [20]: > 120 µM (not active)
- EC50 [21]: > 40 µM (inactive)
- EC50 [22]: > 150 µM (inconclusive)
- IC50 [23]: 0.514 µM (active)
- IC50 [24]: 3.51 µM (active)
- IC50 [25]: 10.5 µM (active)
- EC50 [26]: > 31.5 µM (inactive)
- EC50 [27]: 36.8 µM (active)
- IC50 [28]: > 32 µM
- EC50 [29]: 2.48 µM (active)
- IC50 [30]: 57.8 µM (inactive)
- IC50 [31]: > 25 µM (active)
- EC50 [32]: 0.328 µM (active)
- CC50 [33]: 9.91 µM (active)
- IC50 [34]: > 66 µM (inactive)
- AC50 [35]: 0.383 µM (active)
- IC50 [36]: > 66 µM (inactive)
- IC50 [37]: 6.65 µM (active)
- AC50 [38]: 13.3 µM (active)
- IC50 [39]: > 100 µM (inactive)
- IC50 [40]: > 100 µM (inactive)

Structure (SMILES): Cc1cccc(OCC(=O)Nc2ccc3c(c2)C(=O)NC3=O)c1
- AC50 [41]: 1.36 µM (active)
- AC50 [42]: 8 µM (active)

Structure (SMILES): N#CC(c1ccc([N+](=O)[O-])cc1)c1c(Cl)cnn(Cc2cccc3ccccc23)c1=O (centres undefined)
- IC50 [43]: 0.303 µM (active)
- IC50 [44]: 0.303 µM (active)

Reference: ChEMBL document CHEMBL1201862, “PubChem BioAssay data set” (2004)
